Legend:
Type in all cases: biochemical
[1] = biological target: T1, KRAS WT (amino acids 1-169) (Homo sapiens, UniProt P01116); test: SOS-catalyzed nucleotide exchange assay (Procedure B, BODIPY FL GDP displacement), KRAS WT; conditions: read-out: KRAS WT GNE IC50
T1 construct: made in house; host or cells: E. coli
Description: (§1) Procedure for SOS-Catalyzed Nucleotide Exchange Assay for KRAS-G12C/D/V/WT (Procedure B)
(§2) Recombinant KRAS G12C (amino acids 1-169, SEQ ID NO:9), KRAS G12D (amino acids 1-169, SEQ ID NO: 10), KRAS G12V (amino acids 1-169, SEQ ID NO: 11), KRAS WT (amino acids 1-169, SEQ ID NO:12) and SOS1 (amino acids 564-1049, SEQ ID NO: 13) proteins were expressed in E. coli and purified by affinity chromatography. To prepare each BODIPY™ FL GDP-bound KRAS protein, 50 μM KRAS proteins were incubated with 0.5 mM BODIPY™ FL GDP (Invitrogen, G22360) in a loading buffer (20 mM Tris-HCl pH 7.5, 50 mM NaCl, 1 mM DTT and 2.5 mM EDTA) for 1 hour on ice. After the incubation, MgCl2 was added to a final concentration of 10 mM, followed by an incubation at room temperature for 30 minutes. The mixtures were allowed to pass through a NAP-5 column to remove free nucleotides and purified BODIPY™ FL GDP-bound KRAS G12C, G12D, G12V and WT proteins were used for compound evaluation.
(§3) The inhibitory activity of compounds on recombinant KRAS is measured by the displacement of the bound BODIPY™ GDP. Specifically, 2.5 nM of each BODIPY™ FL GDP-bound KRAS complex was incubated with various concentrations of compound in a reaction buffer (20 mM Tris-HCl pH 7.5, 100 mM NaCl, 1 mM MgCl2, 2 mM DTT, 0.1% Tween 20) at 25° C. for 1 hour. After the incubation, recombinant SOS1 and GMPPNP (Jena Bioscience GmbH, NU-401) were added and incubated at room temperature for 30 minutes to proceed SOS1-dependent GDP-GTP exchange reaction on KRAS. Displacement of BODIPY™ FL GDP by Guanosine-5′-[(β,γ)-imido]triphosphate, Tetralithium salt (GMPPNP) was measured by calculating the ratio of fluorescence intensities of BODIPY™ FL before and after the exchange reaction. Percent Inhibition was calculated by setting the fluorescence ratio from the reaction without test compound (DMSO control) and the fluorescence ratio from the reaction without SOS1 and GMPPNP as 0% and 100% inhibition, respectively. Dose response curves were analyzed using a 4-parameter logistic model to calculate IC50 values.

[2] = biological target: T2, KRAS G12V (amino acids 1-169) (Homo sapiens, UniProt P01116, G12V); test: SOS-catalyzed nucleotide exchange assay (Procedure B, BODIPY FL GDP displacement), KRAS G12V; conditions: read-out: KRAS G12V GNE IC50
T2 construct: made in house; host or cells: E. coli
Description: as §1, §2, §3

[3] = biological target: T3, KRAS G12C (amino acids 1-169) (Homo sapiens, UniProt P01116, G12C); test: SOS-catalyzed nucleotide exchange assay (Procedure B, BODIPY FL GDP displacement), KRAS G12C; conditions: read-out: KRAS G12C GNE IC50
T3 construct: made in house; host or cells: E. coli
Description: as §1, §2, §3

[4] = biological target: T4, KRAS G12D (amino acids 1-169) (Homo sapiens, UniProt P01116, G12D); test: SOS-catalyzed nucleotide exchange assay (Procedure B, BODIPY FL GDP displacement), KRAS G12D; conditions: read-out: KRAS G12D GNE IC50
T4 construct: made in house; host or cells: E. coli
Description: as §1, §2, §3

T4 sequence (P01116 with tags, fused parts or gaps isoform P01116-2 G12D): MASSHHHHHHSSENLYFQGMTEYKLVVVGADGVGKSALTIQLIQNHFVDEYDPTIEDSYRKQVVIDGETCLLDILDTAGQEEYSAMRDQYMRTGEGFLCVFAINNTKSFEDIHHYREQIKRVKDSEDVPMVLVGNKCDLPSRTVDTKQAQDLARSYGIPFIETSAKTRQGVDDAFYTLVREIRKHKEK
T1 sequence (P01116 with tags, fused parts or gaps isoform P01116-2): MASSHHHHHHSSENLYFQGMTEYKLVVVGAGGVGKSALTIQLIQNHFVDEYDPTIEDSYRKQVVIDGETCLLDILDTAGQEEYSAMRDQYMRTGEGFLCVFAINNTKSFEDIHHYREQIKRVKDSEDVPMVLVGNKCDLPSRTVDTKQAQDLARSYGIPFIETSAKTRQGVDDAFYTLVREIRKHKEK
T3 sequence (P01116 with tags, fused parts or gaps isoform P01116-2 G12C): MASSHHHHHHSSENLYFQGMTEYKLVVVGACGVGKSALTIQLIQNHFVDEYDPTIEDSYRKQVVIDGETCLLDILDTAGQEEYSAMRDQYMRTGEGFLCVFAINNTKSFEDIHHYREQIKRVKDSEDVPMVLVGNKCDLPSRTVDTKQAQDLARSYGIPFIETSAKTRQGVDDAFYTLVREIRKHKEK
T2 sequence (P01116 with tags, fused parts or gaps isoform P01116-2 G12V): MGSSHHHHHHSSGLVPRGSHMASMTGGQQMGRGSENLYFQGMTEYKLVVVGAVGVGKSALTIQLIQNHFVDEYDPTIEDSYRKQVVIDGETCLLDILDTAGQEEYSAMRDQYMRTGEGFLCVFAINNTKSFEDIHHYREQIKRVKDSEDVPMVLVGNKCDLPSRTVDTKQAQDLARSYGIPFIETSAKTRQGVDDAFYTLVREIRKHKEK

Row | Compound | IC50 [1] [nM] | IC50 [2] [nM] | IC50 [3] [nM] | IC50 [4] [nM]
1 | C[C@@H]1C[C@@H]1c1c(Cl)cc2[nH]ncc2c1-c1nccc2c1sc1nc(OC[C@@]34CCCN3C[C@H](F)C4)nc(N3CCOC[C@@](C)(O)C3)c12 (atropisomer, axis not shown; (aS)) [Ex-68, (S)-4-((R)-8-(6-chloro-5-((1S,2R)-2-methylcyclopropyl)-1H-indazol-4-yl)-2-(((2R,7aS)-2-fluorotetrahydro-1H-pyrrolizin-7a(5H)-yl)methoxy)pyrido[4′,3′:4,5]thi-eno[2,3-d]pyrimidin-4-yl)-6-methyl-1,4-oxazepan-6-ol] | 57.3 | 97.2 | 39 | 21.9
2 | C=CC1CCc2cc3[nH]ncc3c(-c3nccc4c3sc3nc(OC[C@@]56CCCN5C[C@H](F)C6)nc(N5CCOC[C@@](C)(O)C5)c34)c21 (single isomer, unassigned) [Ex-93] | 3.13 | 3.7 | 7.03 | 1.64
3 | COCC1CCc2cc3[nH]ncc3c(-c3nccc4c3sc3nc(OC[C@@]56CCCN5C[C@H](F)C6)nc(N5CCOC[C@@](C)(O)C5)c34)c21 (single isomer, unassigned) [Ex-97] | 8.37 | 7.19 | 9.73 | 3.16
4 | CC1(F)c2c(cc3[nH]ncc3c2-c2nccc3c2sc2nc(OC[C@@]45CCCN4C[C@H](F)C5)nc(N4CCOC[C@@](C)(O)C4)c23)CC1(F)F (single isomer, unassigned) [Ex-99] | 56.5 | 65.6 | 52.4 | 27.3
5 | CC1c2c(cc3[nH]ncc3c2-c2nccc3c2sc2nc(OC[C@@]45CCCN4C[C@H](F)C5)nc(N4CCOC[C@@](C)(O)C4)c23)CC1(F)F (single isomer, unassigned) [Ex-107] | 6.2 | 9.52 | 19.8 | 3.81
6 | Cc1cc2[nH]ncc2c(-c2nccn3c2c(C)c2nc(OC[C@@]45CCCN4C[C@H](F)C5)nc(N4CCOC[C@@](C)(O)C4)c23)c1C(F)(F)F (single isomer, unassigned) [Ex-301] | 107 | 86.1 | 107 | 49.5
7 | C[C@@]1(O)COCCN(c2nc(OC[C@@]34CCCN3C[C@H](F)C4)nc3sc4c(-c5c(C6(F)CC6)c(C6CC6)cc6[nH]ncc56)nccc4c23)C1 [Ex-57, (6S)-4-(8-(6-cyclopropyl-5-(1-fluorocyclopropyl)-1H-indazol-4-yl)-2-(((2R,7aS)-2-fluorotetrahydro-1H-pyrrolizin-7a(5H)-yl)methoxy)pyrido[4′,3′: 4,5]thieno[2,3-d]pyrimidin-4-yl)-6-methyl-1,4-oxazepan-6-ol] | 29.3 | 41.3 | 62.5 | 26.9
8 | CC(=O)c1c(C(F)(F)F)cc2[nH]ncc2c1-c1nccc2c1sc1nc(OC[C@@]34CCCN3C[C@H](F)C4)nc(N3CCOC[C@@](C)(O)C3)c12 [Ex-59] | 112 | 125 | 183 | 71.9
9 | C[C@@]1(O)COCCN(c2nc(OC[C@@]34CCCN3C[C@H](F)C4)nc3sc4c(-c5c(C6=CCOC6)c(Cl)cc6[nH]ncc56)nccc4c23)C1 [Ex-74, (6S)-4-(8-(6-chloro-5-(2,5-dihydrofuran-3-yl)-1H-indazol-4-yl)-2-(((2R,7aS)-2-fluorotetrahydro-1H-pyrrolizin-7a(5H)-yl)methoxy)pyrido[4′,3′:4,5]thi-eno[2,3-d]pyrimidin-4-yl)-6-methyl-1,4-oxazepan-6-ol] | 933 | 1260 | 819 | 438
10 | C[C@@]1(O)COCCN(c2nc(OC[C@@]34CCCN3C[C@H](F)C4)nc3sc4c(-c5c(-c6cnco6)c(Cl)cc6[nH]ncc56)nccc4c23)C1 [Ex-75, (6S)-4-(8-(6-chloro-5-(oxazol-5-yl)-1H-indazol-4-yl)-2-(((2R,7aS)-2-fluorotetrahydro-1H-pyrrolizin-7a(5H)-yl)methoxy)pyrido[4′,3′:4,5]thi-eno[2,3-d]pyrimidin-4-yl)-6-methyl-1,4-oxazepan-6-ol] | 60.8 | 118 | 56 | 19.3
11 | C[C@@]1(O)COCCN(c2nc(OC[C@@]34CCCN3C[C@H](F)C4)nc3sc4c(-c5c6c(cc7[nH]ncc57)CCC6=O)nccc4c23)C1 [Ex-89, 4-(2-(((2R,7aS)-2-fluorotetrahydro-1H-pyrrolizin-7a(5H)-yl)methoxy)-4-((S)-6-hydroxy-6-methyl-1,4-oxazepan-4-yl)pyrido[4′,3′:4,5]thieno [2,3-d]pyrimidin-8-yl)-6,7-dihydrocyclopenta[f]inda-zol-5(1H)-one] | 171 | 245 | 138 | 80
12 | CCC1CCc2cc3[nH]ncc3c(-c3nccc4c3sc3nc(OC[C@@]56CCCN5C/C(=C\F)C6)nc(N5CCOC[C@@](C)(O)C5)c34)c21 (stereo partly drawn) [Ex-94, (6S)-4-(8-(5-ethyl-1,5,6,7-tetrahydrocyclopenta[f]in-dazol-4-y1)-2-(((S,Z)-2-(fluoromethylene)tetrahy-dro-1H-pyrrolizin-7a(5H)-yl)methoxy)pyrido[4′,3':4,5]thi-eno[2,3-d]pyrimidin-4-y1)-6-methyl-1,4-oxazepan-6-ol] | 3.82 | 4.2 | 5.33 | 1.68
13 | CCCC1CCc2cc3[nH]ncc3c(-c3nccc4c3sc3nc(OC[C@@]56CCCN5C[C@H](F)C6)nc(N5CCOC[C@@](C)(O)C5)c34)c21 (some centres unmarked) [Ex-95] | 99.4 | 65 | 91.5 | 49.8
14 | C[C@@]1(O)COCCN(c2nc(OC[C@@]34CCCN3C[C@H](F)C4)nc3sc4c(-c5c6c(cc7[nH]ncc57)CCC6C#N)nccc4c23)C1 (stereo partly drawn) [Ex-96, 4-(2-(((2R,7aS)-2-fluorotetrahydro-1H-pyrrolizin-7a(5H)-yl)methoxy)-4-((S)-6-hydroxy-6-methyl-1,4-oxazepan-4-yl)pyrido[4′,3′:4,5]thieno [2,3-d]pyrimidin-8-yl)-1,5,6,7-tetrahydrocyclopenta[f]in-dazole-5-carbonitrile] | 125 | 105 | 193 | 43.8
15 | CC1c2c(cc3[nH]ncc3c2-c2nccc3c2sc2nc(OC[C@@]45CCCN4C[C@H](F)C5)nc(N4CCOC[C@@](C)(O)C4)c23)C(C)(C)C1(F)F (stereo partly drawn) [Ex-100, (6S)-4-(8-(6,6-difluoro-5,7,7-trimethyl-1,5,6,7-tetrahydrocyclopenta[f]in-dazol-4-yl)-2-(((2R,7aS)-2-fluorotetrahydro-1H-pyrrolizin-7a(5H)-yl)methoxy)pyrido[4′,3′: 4,5]thieno[2,3-d]pyrimidin-4-yl)-6-methyl-1,4-oxazepan-6-ol] | 354 | 507 | 663 | 216
16 | CC1CC(F)(F)c2cc3[nH]ncc3c(-c3nccc4c3sc3nc(OC[C@@]56CCCN5C[C@H](F)C6)nc(N5CCOC[C@@](C)(O)C5)c34)c21 (stereo partly drawn) [Ex-101, (6S)-4-(8-(7,7-difluoro-5-methy1-1,5,6,7-tetrahydrocyclopenta[f]in-dazol-4-yl)-2-(((2R,7aS)-2-fluorotetrahydro-1H-pyrrolizin-7a(5H)-yl)methoxy)pyrido[4′,3′:4,5]thi-eno[2,3-d]pyrimidin-4-yl)-6-methyl-1,4-oxazepan-6-ol] | 4 | 5.16 | 6.44 | 1.99
17 | CCC1CC(F)(F)c2cc3[nH]ncc3c(-c3nccc4c3sc3nc(OC[C@@]56CCCN5C[C@H](F)C6)nc(N5CCOC[C@@](C)(O)C5)c34)c21 (stereo partly drawn) [Ex-102, (6S)-4-(8-(5-ethyl-7,7-difluoro-1,5,6,7-tetrahydrocyclopenta[f]in-dazol-4-yl)-2-(((2R,7aS)-2-fluorotetrahydro-1H-pyrrolizin-7a(5H)-yl)methoxy)pyrido[4′,3′:4,5]thi-eno[2,3-d]pyrimidin-4-yl)-6-methyl-1,4-oxazepan-6-ol] | 7.84 | 10.4 | 10.3 | 3.56
